# Key:
# [1] = 14C radiolabeled drug, beagle dogs, spot-on administration; cited from earlier work
# [2] = 20° C. and pH of 7; cited from earlier work
# [3] = system: Ctenocephalides felis; assay: Spot-on efficacy of Compound A, pyriproxyfen and nitenpyram against Ctenocephalides felis fleas in cats (Example 11); type: in vivo; conditions: Group 5: 2.08% nitenpyram alone in Transcutol, 5.0 mg/kg
# Experimental: The efficacy of three spot-on compositions comprising a combination of Compound A, pyriproxyfen and nitenpyram against Ctenocephalides felis fleas in cats was studied and compared with an untreated control and with a spot-on composition comprising nitenpyram alone. Cats were allocated into five Treatment Groups with 5 cats per group: Group 1—cats were untreated (control); Group 2—cats were treated spot-on solution containing 0.83% (w/v) Compound A, 2.08% (w/v) nitenpyram, and 4.17% (w/v) pyriproxyfen in Transcutol® to deliver doses of 1.0 mg/kg Compound A, 2.5 mg/kg nitenpyram and 5.0 mg/kg pyriproxyfen; Group 3—cats were treated a spot-on solution containing 0.83% (w/v) Compound A, 4.17% (w/v) nitenpyram, and 4.17% (w/v) pyriproxyfen in Transcutol® to deliver doses of 1.0 mg/kg Compound A, 5.0 mg/kg nitenpyram and 5.0 mg/kg pyriproxyfen; Group 4—cats were treated with a spot-on composition containing 0.83% (w/v) Compound A, 8.33% (w/v) nitenpyram and 4.17% (w/v) pyriproxyfen in Transcutol® to deliver doses of 1.0 mg/kg Compound A, 10.0 mg/kg nitenpyram and 5.0 mg/kg pyriproxyfen; Group 5—cats were treated with a spot-on composition containing 2.08% (w/v) nitenpyram alone in Transcutol® to deliver a dose of 5.0 mg/kg body weight.
# Treatment was administered once on Day 0. The cats were each infested with approximately 100 C. felis fleas at day −1, on Day 0 approximately 12 hours post treatment and then on Days 1 (approx. 24 hours post treatment), 2, 7, 14, 21, 28 and 35. After each infestation, fleas were removed and counted approximately 12 hours (±3) on Day 0, and then on Days 1, 2, 8, 15, 22, 29 and 36 (24±3 hours after infestation).
Structure (SMILES),persistently detected in the whole skin after treatment [1],solubility in water [2],% Reduction ([3]; Day 0 (12 h)),% Reduction ([3]; Day 1 (24 h)),% Reduction ([3]; Day 2 (24 h)),% Reduction ([3]; Day 8 (24 h)),% Reduction ([3]; Day 15 (24 h)),% Reduction ([3]; Day 22 (24 h))
N#Cc1nn(-c2c(Cl)cc(C(F)(F)F)cc2Cl)c(N)c1[S+]([O-])C(F)(F)F (centres unmarked) [fipronil],up to 56 days,,,,,,,
CCN(Cc1ccc(Cl)nc1)/C(=C/[N+](=O)[O-])NC [nitenpyram],,840 mg/mL,99.44%,99.79%,100.00%,100.00%,96.76%,93.63%
